This is an account of results in PMC6099735, “Piplartine Analogues and Cytotoxic Evaluation against Glioblastoma” (Molecules : A Journal of Synthetic Chemistry and Natural …, 2018).

≈ marks a conversion by molar mass, not a printed value.

Data set [1] relates to BF16F10-Nex2 (murine melanoma). Further details: method as in PMID 25920262. The following applies: MTT test; cited from earlier work. Background: Tetrazolium dyes change colour on reduction, which living cells bring about.
Data set [2] has as its system U87MG (human glioblastoma). Further details: method as in PMID 25920262. The conditions noted are these: MTT test; cited from earlier work.
In data set [3] the test system is HeLa (human cervical carcinoma). On the set-up: method as in PMID 25920262. The conditions noted are these: MTT test; cited from earlier work.
Data set [4] relates to HCT (human colon carcinoma). Further details: method as in PMID 25920262. The conditions noted are these: MTT test; cited from earlier work.
The subject of data set [5] is HL-60 (human leukemic cell). On the set-up: method as in PMID 25920262. The following applies: MTT test; cited from earlier work.
The next data set relates to A2258 (human melanoma). On the set-up: method as in PMID 25920262. The conditions noted are these: MTT test; cited from earlier work.
Data set [6] has as its system U87MG cells. In words: MTT cell viability assay, cytotoxic activity against proliferation of U87MG cells. The following applies: for IC50: Homo sapiens, U-87 MG, MTT assay, 48 h exposure, 0.78-50 μg/mL, mean ± SEM of four experiments. In kind it is cell-based, human. On the procedure: To evaluate the cytotoxic potential of compounds 2–19 against human U87MG, glioblastoma cells were used with several concentrations (0 to 50 μg/mL). After 48 h of incubation, cell viability rates were established by MTT and LDH analysis. IC50 values of each analogue were determined due to observed cell viability results after MTT assay. All tested analogues led to inhibition of cellular proliferation rates as compared to untreated cells in a clear concentration and compound type dependent manners, as illustrated in Table 1 and Figure 2.
Human glioblastoma (GBM) cell line U87MG (American Type Culture Collection; Rockville, MD, USA) within passage number 15–20 were grown in an incubator at 37 °C in a humidified atmosphere of 5% CO2. They were grown in Eagle’s Minimal Essential Medium from Sigma-Aldrich (Saint Louis, MO, USA), supplemented with 10% fetal bovine serum (FBS) and 100 μg/mL of each of the following antibiotics: penicillin and streptomycin [66].
To examine the effects of compounds on cell viability, an MTT assay was performed. U87MG cells were seeded at 1 × 10^4 cells per well in 96-well plate and allowed to attach for 24 h. Then the cells were exposed to different concentrations of 2–19 (0.78, 1.56, 3.125, 6.25, 12.5, 25 and 50 μg/mL) for 48 h. All the compounds were dissolved in dimethyl sulfoxide (DMSO), and diluted in serum-free culture medium. After the incubation, a 3-(4,5-dimethylthiazol-2-yl)-2,5-diphenyltetrazolium bromide (MTT) solution was applied to cell cultures according to the manufacturer’s instructions (Cayman Chemical Company®, Ann Arbor, MI, USA). After 3 h of incubation, MTT-formazan crystals were dissolved in DMSO and absorbance was measured at 570 nm on a plate reader and compared with control, untreated cells. The half-maximal inhibitory concentration values (IC50) were determined by MTT assay performed in four replicates.

Data set [7] concerns U87MG cells. Briefly: Apoptosis detection by Hoechst 33,258 staining. It counts as cell-based, human. The conditions noted are these: 48 h at IC50 concentration, compared with control group. How it is done:
Cell apoptosis induced by compound 10 was examined by Hoechst 33,258 staining and observed under a fluorescence microscope at 400× magnification.
The control and formulation treated cells were incubated for 48 h and were cultured in six-well cell culture plates for 48 h. after incubation, the medium was removed and the cells were fixed with 4% paraformaldehyde in phosphate buffered saline at 4 °C for 30 min. Following the washing cells three times with phosphate-buffered saline (PBS). The cells were then stained with 1 μL Hoechst 33,258 (5 μg/mL; Sigma-Aldrich, Saint Louis, MO, USA) and incubated at room temperature in the dark for 5 min. Changes in nuclear morphology were visualized under a fluorescent microscope (excitation, 350 nm; emission, 460 nm; Leica® DM IL LED, Wetzlar, Germany).

The test system of data set [8] is U87MG cells. In words: Total antioxidant capacity (TAC) assay. In kind it is cell-based, human. The conditions noted are these: 48 h, concentrations 0.78 and 50 μg/mL, compared with controls. On the procedure:
(§1) The total antioxidant capacity (TAC) and the total oxidant status (TOS) levels were evaluated in samples from treated and untreated cultures using colorimetric measurement methods.
(§2) The commercially available kits were purchased from (Rel Assay Diagnostics®, Gaziantep, Turkey) to estimate the level of TAS and TOS. As a summary, the cells were seeded at 10^6 cells/well in 48-well plates, treated with compound 10 as described above. After 48 h incubation, plasma samples of treated and untreated cultures were transferred to a new plate, mixed with reaction solution and incubate for 10 min at room temperature. After that, the absorbance was read spectrophotometrically and the level of TAS and TOS were calculated according to the given equation.

The test system of data set [9] is U87MG cells. In words: Total oxidant status (TOS) assay. It counts as cell-based, human. The conditions noted are these: 48 h, all the concentrations. How it is done:
as §1, §2

In data set [10] the test system is U87MG cells. Briefly: qRT-PCR gene expression, custom plate with 15 cancer pathway genes. The conditions noted are these: IC50 concentration, 48 h. In kind it is cell-based, human. On the procedure: To find out the differences in the level of gene expression in U87MG cells exposed using compound 10, a custom plate with 15 different genes involved in cancer related pathways was used via qRT-PCR studies.
Total RNA was isolated from cultured cells using PureLink® RNA Mini Kit (Invitrogen, Carlsbad, MA, USA) following the instructions described by the manufacturer. For quantitative reverse-transcription polymerase chain reaction (qRT-PCR), RNA was reverse-transcribed to cDNA by using a High-Capacity cDNA Reverse Transcription kit (Applied Biosystems, Foster City, CA, USA) according to the manufacturer’s protocol. Real-time PCR analyses were performed using the resulting total cDNA on a TaqMan® custom plate (Applied Biosystems) designed with 15 different genes (EGFR, AKT1, AKT2, NFκB1, NFκB1A, NFκB2, PTEN, KRAS, PIK3CA, PIK3R1, TP53, RAF1, BRAF, DVL1, FOS). Results were normalized to the expression of 18SRNA. qRT-PCR and data collection were performed on 7500 Fast Real-Time PCR (Applied Biosystems). Data analyses were performed using the The Applied Biosystems 7500 Fast System SDS software (Foster City, CA, USA).

The test system of data set [11] is peripheral human whole blood (PHWB) cells. In words: Biosafety: MTT cytotoxicity on cultured blood cells. It counts as cell-based. The following applies: 0.78 to 50 μg/mL. How it is done:
(§3) To evaluate biosafety of 10, its cytotoxic and genotoxic potential were investigated on cultured peripheral human whole blood (PHWB) cells. Firstly, the cytotoxicity testing was performed by MTT and LDH assays. The human blood cells exposed to 0.78 to 50 μg/mL of 10. […] Afterwards, genotoxic potential was assessed by SCE testing and determination of 8-OH-dG.
(§4) Human peripheral blood cells were cultured in order to evaluate the biosafety of 10. To assess the cytotoxicity and genotoxicity potential of 10, MTT, LDH, Sister chromatid exchange (SCE) and 8-hydroxy-2′-deoxyguanosine assays were assessed on cultured blood cells.

For data set [12] the test system is unchanged. Briefly: Biosafety: LDH cytotoxicity on cultured blood cells. In kind it is cell-based. The following applies: 0.78 to 50 μg/mL. How it is done:
as §3, §4

Data set [13] shares this test system. Briefly: Sister chromatid exchange (SCE) testing. The following applies: 72 h, vs control group. In kind it is cell-based. How it is done:
as §3
Peripheral blood samples were incubated with 10 (50 μg/mL) at 37 °C for 72 h in culture medium (PB-MAX Karyotyping Medium, Gibco®, Baecelona, Spain) with 5.0 mg/mL of phytohemagglutinin (Sigma Aldrich, Steinheim, Germany). 5-Bromodeoxyuridine (BrdU) (10 μg/mL) was added to cell cultures at initiation. At 1.5 h before harvesting, colcemid (0.5 μg/mL) were added to cells. Then cells were treated with a hypotonic solution (0.075 M KCl), followed by three times fixation step in methanol/acetic acid (3:1, v/v). Cell suspensions were dropped on slides and air-dried. Three days later, the slides were stained according to the fluorescence plus Giemsa (FPG) procedure. Slides were observed under a fluorescence microscope and scores were calculated as SCEs per cell.

Setting [14] is: significant = >0.5 fold change vs untreated.

As a reminder, the IC50 is the concentration at which inhibition is half-maximal. For orientation: melting point means the temperature of the solid-liquid transition.

`COc1cc(/C=C/C(=O)N2CCC=CC2=O)cc(OC)c1OC` [Compound 1, Piplartine]: the half-maximal inhibitory concentration (IC50) (in data set [1]; in data set [2]; in [3]; in [4]; in data set [5]; in the data set with A2258 (human melanoma)) was above 200 µg/mL in each case.
Consider `COc1cc(/C=C/C(=O)OC(c2ccccc2)c2ccccc2)cc(OC)c1OC` [Compound 10, (E)-Benzhydryl 3-(3,4,5-trimethoxyphenyl)acrylate], for which the “cell viability / cellular proliferation rates” value in the data set on U87MG cells [6] (0 to 50 μg/mL, 48 h, MTT and LDH analysis, compared to untreated cells) is “marked concentration-dependent inhibitory effect”. In the data set on U87MG cells [6], the midpoint of inhibition, the IC50, lay at 2.58 ± 0.35 µg/mL (≈ 6.38 µM). The “apoptosis (nuclear morphology, Hoechst 33,258 staining)” value with U87MG cells [7] is “enhanced chromatin condensation and nuclear fragmentation were detected”. In addition, the “total antioxidant capacity (TAC) levels” value in the data set on U87MG cells [8] was “significant increase of TAC levels”. Besides, the “total oxidant status (TOS) levels” value with U87MG cells [9] is “did not change the TOS levels”. For the same molecule, in the data set on U87MG cells [10] (<0.5 fold change), the “gene expression of BRAF, DVL1, EGFR, FOS, KRAS, NF-ĸB1A, RAF1, PIK3CA and PIK3R1” value is “slight and insignificant alterations”. Further, in the data set with U87MG cells [10] (setting [14]), the AKT1 gene expression entry is reported as “down-regulated” and the AKT2 gene expression entry is recorded as “down-regulated”. In the data set with U87MG cells [10] (vs untreated), the NF-ĸB1 gene expression entry is “up-regulated”, the NF-ĸB2 gene expression entry was “up-regulated”, the PTEN gene expression result is reported as “up-regulated” and the TP53 gene expression result is “up-regulated”. Moreover, the “cytotoxicity on blood cells, cell proliferation (MTT assay)” value in data set [11] was “did not lead to any significant (p > 0.05) changes in cell proliferation”. The “cytotoxicity on blood cells, cell proliferation (LDH assay)” value in [12] was “did not lead to any significant (p > 0.05) changes in cell proliferation”. In data set [13], the “genotoxicity, frequencies of SCEs” value is “not significant differences in the frequencies of SCEs”.
`CCN(CC)C(=O)/C=C/c1cc(OC)c(OC)c(OC)c1` [Compound 19, (E)-N,N-Diethyl-3-(3,4,5-trimethoxyphenyl)acrylamide] showed a melting point of 197 to 198 °C. In the data set on U87MG cells [6], the IC50 is 36.1 ± 0.44 µg/mL (≈ 123 µM).
In the case of piplaroxide, the cytotoxic activity entry in data set [1], in data set [3] and in [5] was “moderate activity” each time.
